Measurements from the supplement of paper PMC11451515.

Legend:
Assay in all cases: AUC of viability dose-response curve (% viability x log10 dose units); higher = less sensitive
Settings in all cases: 48 h
NOMO1 = system: NOMO1
Outline: (§1)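 Leukemia cells adapted to each medium were seeded at 500 or 1000 cells/well in 1536-well plates and dosed with library compounds in DMSO at 11 threefold doses from 47 μM to 0.79 nM for 48 h at 37°C. CellTiter-Glo One luminescence was normalised per plate to DMSO and cell-free wells, then fitted with a four-parameter log-logistic model over log10 doses. Area under the curve was taken from this fit by the trapezoidal rule, with curves above full viability scaled and curves failing quality control removed.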

P12-Ichikawa = system: P12-Ichikawa
Outline: as §1

SEM cells = system: SEM cells
Outline: as §1

[1] = RPMI 5 mM glucose + 10% dialyzed FBS

For `C[N]1C=C(C2=CC=CC=C12)\C3=C(\C(=O)NC3=O)C4=C[N](C5CCN(CC5)CC6=NC=CC=C6)C7=C4C=CC=C7`, the “AUC of viability dose-response curve” value (NOMO1; HPLM + 10% dialyzed FBS) was 458, the “AUC of viability dose-response curve” value (NOMO1; RPMI 5 mM glucose + 10% FBS) was 424 and the “AUC of viability dose-response curve” value (NOMO1; [1]) was 445. For the same compound, the “AUC of viability dose-response curve” value (P12-Ichikawa; HPLM + 10% dialyzed FBS) was 472, the “AUC of viability dose-response curve” value (P12-Ichikawa; RPMI 5 mM glucose + 10% FBS) was 475 and the “AUC of viability dose-response curve” value (P12-Ichikawa; [1]) was 472. For the same compound, the “AUC of viability dose-response curve” value (SEM cells; HPLM + 10% dialyzed FBS) was 461, the “AUC of viability dose-response curve” value (SEM cells; RPMI 5 mM glucose + 10% FBS) was 446 and the “AUC of viability dose-response curve” value (SEM cells; [1]) was 454.

For `Cc1ccc(C(=O)Nc2cccc(C(F)(F)F)c2)cc1-c1ccc2nc(NCCN3CCOCC3)ncc2c1`, the “AUC of viability dose-response curve” value (NOMO1; HPLM + 10% dialyzed FBS) was 384, the “AUC of viability dose-response curve” value (NOMO1; RPMI 5 mM glucose + 10% FBS) was 388 and the “AUC of viability dose-response curve” value (NOMO1; [1]) was 384. For the same compound, the “AUC of viability dose-response curve” value (P12-Ichikawa; HPLM + 10% dialyzed FBS) was 418, the “AUC of viability dose-response curve” value (P12-Ichikawa; RPMI 5 mM glucose + 10% FBS) was 408 and the “AUC of viability dose-response curve” value (P12-Ichikawa; [1]) was 408. The “AUC of viability dose-response curve” value (SEM cells; HPLM + 10% dialyzed FBS) was 384, the “AUC of viability dose-response curve” value (SEM cells; RPMI 5 mM glucose + 10% FBS) was 378 and the “AUC of viability dose-response curve” value (SEM cells; [1]) was 378.

`CCCC(C)(COC(N)=O)COC(=O)NC(C)C` (stereo unspecified) was tested, and the “AUC of viability dose-response curve” value (NOMO1; HPLM + 10% dialyzed FBS) was 466, the “AUC of viability dose-response curve” value (NOMO1; RPMI 5 mM glucose + 10% FBS) was 451 and the “AUC of viability dose-response curve” value (NOMO1; [1]) was 446. The “AUC of viability dose-response curve” value (P12-Ichikawa; HPLM + 10% dialyzed FBS) was 459, the “AUC of viability dose-response curve” value (P12-Ichikawa; RPMI 5 mM glucose + 10% FBS) was 455 and the “AUC of viability dose-response curve” value (P12-Ichikawa; [1]) was 458. For the same compound, the “AUC of viability dose-response curve” value (SEM cells; HPLM + 10% dialyzed FBS) was 451, the “AUC of viability dose-response curve” value (SEM cells; RPMI 5 mM glucose + 10% FBS) was 443 and the “AUC of viability dose-response curve” value (SEM cells; [1]) was 412.

For `CCC[S+](=O)([O-])Nc1ccc(F)c(C(=O)c2c[nH]c3ncc(Cl)cc23)c1F`, the “AUC of viability dose-response curve” value (NOMO1; HPLM + 10% dialyzed FBS) was 403, the “AUC of viability dose-response curve” value (NOMO1; RPMI 5 mM glucose + 10% FBS) was 437 and the “AUC of viability dose-response curve” value (NOMO1; [1]) was 440. For the same compound, the “AUC of viability dose-response curve” value (P12-Ichikawa; HPLM + 10% dialyzed FBS) was 439, the “AUC of viability dose-response curve” value (P12-Ichikawa; RPMI 5 mM glucose + 10% FBS) was 450 and the “AUC of viability dose-response curve” value (P12-Ichikawa; [1]) was 431. The “AUC of viability dose-response curve” value (SEM cells; HPLM + 10% dialyzed FBS) was 409, the “AUC of viability dose-response curve” value (SEM cells; RPMI 5 mM glucose + 10% FBS) was 419 and the “AUC of viability dose-response curve” value (SEM cells; [1]) was 425.

`COc1cc([C@@H](CC(=O)O)c2ccc(C)c(CN3C[C@@H](C)Oc4ccccc4[S+]3(=O)[O-])c2)cc2nnn(C)c12` was tested, and the “AUC of viability dose-response curve” value (NOMO1; HPLM + 10% dialyzed FBS) was 403, the “AUC of viability dose-response curve” value (NOMO1; RPMI 5 mM glucose + 10% FBS) was 418 and the “AUC of viability dose-response curve” value (NOMO1; [1]) was 431. For the same compound, the “AUC of viability dose-response curve” value (P12-Ichikawa; HPLM + 10% dialyzed FBS) was 407, the “AUC of viability dose-response curve” value (P12-Ichikawa; RPMI 5 mM glucose + 10% FBS) was 446 and the “AUC of viability dose-response curve” value (P12-Ichikawa; [1]) was 452. The “AUC of viability dose-response curve” value (SEM cells; HPLM + 10% dialyzed FBS) was 452, the “AUC of viability dose-response curve” value (SEM cells; RPMI 5 mM glucose + 10% FBS) was 350 and the “AUC of viability dose-response curve” value (SEM cells; [1]) was 367.

For `CCOC(=O)N1c2ccc(C(F)(F)F)cc2[C@@H](N(Cc2cc(C(F)(F)F)cc(C(F)(F)F)c2)C(=O)OC)C[C@H]1CC`, the “AUC of viability dose-response curve” value (NOMO1; HPLM + 10% dialyzed FBS) was 434, the “AUC of viability dose-response curve” value (NOMO1; RPMI 5 mM glucose + 10% FBS) was 460 and the “AUC of viability dose-response curve” value (NOMO1; [1]) was 470. The “AUC of viability dose-response curve” value (P12-Ichikawa; HPLM + 10% dialyzed FBS) was 449, the “AUC of viability dose-response curve” value (P12-Ichikawa; RPMI 5 mM glucose + 10% FBS) was 466 and the “AUC of viability dose-response curve” value (P12-Ichikawa; [1]) was 471. For the same compound, the “AUC of viability dose-response curve” value (SEM cells; HPLM + 10% dialyzed FBS) was 462, the “AUC of viability dose-response curve” value (SEM cells; RPMI 5 mM glucose + 10% FBS) was 460 and the “AUC of viability dose-response curve” value (SEM cells; [1]) was 468.

`Cc1cn([C@H]2C=C[C@@H](CO)O2)c(=O)[nH]c1=O` was tested, and the “AUC of viability dose-response curve” value (NOMO1; HPLM + 10% dialyzed FBS) was 474, the “AUC of viability dose-response curve” value (NOMO1; RPMI 5 mM glucose + 10% FBS) was 435 and the “AUC of viability dose-response curve” value (NOMO1; [1]) was 453. The “AUC of viability dose-response curve” value (P12-Ichikawa; HPLM + 10% dialyzed FBS) was 468, the “AUC of viability dose-response curve” value (P12-Ichikawa; RPMI 5 mM glucose + 10% FBS) was 475 and the “AUC of viability dose-response curve” value (P12-Ichikawa; [1]) was 474. For the same compound, the “AUC of viability dose-response curve” value (SEM cells; HPLM + 10% dialyzed FBS) was 465, the “AUC of viability dose-response curve” value (SEM cells; RPMI 5 mM glucose + 10% FBS) was 450 and the “AUC of viability dose-response curve” value (SEM cells; [1]) was 469.

With `COC(=O)Nc1nc2cc(C(=O)c3ccc(F)cc3)ccc2[nH]1` the “AUC of viability dose-response curve” value (NOMO1; HPLM + 10% dialyzed FBS) was 372, the “AUC of viability dose-response curve” value (NOMO1; RPMI 5 mM glucose + 10% FBS) was 426 and the “AUC of viability dose-response curve” value (NOMO1; [1]) was 402. For the same compound, the “AUC of viability dose-response curve” value (P12-Ichikawa; HPLM + 10% dialyzed FBS) was 365, the “AUC of viability dose-response curve” value (P12-Ichikawa; RPMI 5 mM glucose + 10% FBS) was 377 and the “AUC of viability dose-response curve” value (P12-Ichikawa; [1]) was 388. For the same compound, the “AUC of viability dose-response curve” value (SEM cells; HPLM + 10% dialyzed FBS) was 343, the “AUC of viability dose-response curve” value (SEM cells; RPMI 5 mM glucose + 10% FBS) was 363 and the “AUC of viability dose-response curve” value (SEM cells; [1]) was 374.

`CCOC(=O)[C@@]1(CCCCCCOc2ccc(Cl)cc2)CO1` was tested, and the “AUC of viability dose-response curve” value (NOMO1; HPLM + 10% dialyzed FBS) was 458, the “AUC of viability dose-response curve” value (NOMO1; RPMI 5 mM glucose + 10% FBS) was 444 and the “AUC of viability dose-response curve” value (NOMO1; [1]) was 456. The “AUC of viability dose-response curve” value (P12-Ichikawa; HPLM + 10% dialyzed FBS) was 448, the “AUC of viability dose-response curve” value (P12-Ichikawa; RPMI 5 mM glucose + 10% FBS) was 452 and the “AUC of viability dose-response curve” value (P12-Ichikawa; [1]) was 454. For the same compound, the “AUC of viability dose-response curve” value (SEM cells; HPLM + 10% dialyzed FBS) was 428, the “AUC of viability dose-response curve” value (SEM cells; RPMI 5 mM glucose + 10% FBS) was 413 and the “AUC of viability dose-response curve” value (SEM cells; [1]) was 426.
